# Results reported in US9981942B2, “Piperidine derivatives having multimodal activity against pain” (LABORATORIOS DEL DR. ESTEVE S.A., priority 2013, dated 2018).
# Tested on: σ1 receptor and the μ-opiod receptor
# Assay: μ and σ1 dual binding: combined class from the Ki of both radioligand assays
# Design: species or system human; key to μ and σ1 dual binding: +: Both Ki-μ and Ki-σ1>=500 nM; ++: One Ki<500 nM while the other Ki is >=500 nM; +++: Both Ki-μ and Ki-σ1<500 nM; ++++: Both Ki-μ and Ki-σ1<100 nM
# Conditions: combined class for Ki-μ and Ki-σ1; transfected HEK-293 membranes (σ1), transfected CHO-K1 cell membranes (μ)
# In short: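 Classes combine both Ki values, split at 500 nM and 100 nM. Human μ-opioid binding used 1 nM [3H]-DAMGO on CHO-K1 membranes (27 °C, 60 min, pH 7.4, naloxone 10 μM for NSB); human σ1 used 5 nM [3H](+)-pentazocine on HEK-293 membranes (37 °C, 120 min, pH 8, haloperidol 10 μM for NSB).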
row,Structure (SMILES),μ and σ1 dual binding
1,"CC(C)S(=O)(=O)Nc1cccc(C2CCN(Cc3cn(Cc4cnc(C(F)(F)F)nc4)nn3)CC2)c1 [Example 129, N-(3-(1-((1-((2-(trifluoromethyl)pyrimidin-5-yl)methyl)-1H-1,2,3-triazol-4-yl)methyl)piperidin-4-yl)phenyl)propane-2-sulfonamide]",++
2,"Oc1ccc(-n2cc(CN3CCC(c4cccc(O)c4)CC3)nn2)nc1 [Example 220, 6-(4-((4-(3-hydroxyphenyl)piperidin-1-yl)methyl)-1H-1,2,3-triazol-1-yl)pyridin-3-ol]",++
3,"COc1c(NS(C)(=O)=O)cccc1C1CCN(Cc2cn(Cc3ccccc3)nn2)CC1 [Example 102, N-(3-(1-((1-benzyl-1H-1,2,3-triazol-4-yl)methyl)piperidin-4-yl)-2-methoxyphenyl)methanesulfonamide]",++
4,"CN(c1cccc(C2CCN(Cc3cn(-c4ccccc4)nn3)CC2)c1)S(C)(=O)=O [Example 31, N-methyl-N-(3-(1-((1-phenyl-1H-1,2,3-triazol-4-yl)methyl)piperidin-4-yl)phenyl)methanesulfonamide]",++
5,"CS(=O)(=O)Nc1cc(C2CCN(Cc3cn(Cc4ccccc4)nn3)CC2)ccc1F [Example 90, N-(5-(1-((1-benzyl-1H-1,2,3-triazol-4-yl)methyl)piperidin-4-yl)-2-fluorophenyl)methanesulfonamide]",++
6,"CS(=O)(=O)Nc1cccc(C2CCN(Cc3cncn3Cc3ccccc3)CC2)c1 [Example 185, N-(3-(1-((1-benzyl-1H-imidazol-5-yl)methyl)piperidin-4-yl)phenyl)methanesulfonamide]",++
7,"Oc1cccc(C2CCN(Cc3cn(-c4ncccc4O)nn3)CC2)c1 [Example 216, 2-(4-((4-(3-hydroxyphenyl)piperidin-1-yl)methyl)-1H-1,2,3-triazol-1-yl)pyridin-3-ol]",++
8,"CS(=O)(=O)Nc1cccc(C2CCN(Cc3ncn(-c4ccccc4)n3)CC2)c1 [Example 182, N-(3-(1-((1-phenyl-1H-1,2,4-triazol-3-yl)methyl)piperidin-4-yl)phenyl)methanesulfonamide]",++
9,"CC(C)S(=O)(=O)Nc1cccc([C@@H]2CCN(Cc3cnn(-c4ccccn4)c3)C[C@@H]2O)c1 [Example 169, N-(3-((3R,4S)-3-hydroxy-1-((1-(pyridin-2-yl)-1H-pyrazol-4-yl)methyl)piperidin-4-yl)phenyl)propane-2-sulfonamide]",++
10,"c1ccc(Cn2cc(CN3CCC(c4cccc(-c5ncc[nH]5)c4)CC3)nn2)nc1 [Example 139, 2-((4-((4-(3-(1H-imidazol-2-yl)phenyl)piperidin-1-yl)methyl)-1H-1,2,3-triazol-1-yl)methyl)pyridine]",++

# Same assay, conditions: transfected HEK-293 membranes (σ1), transfected CHO-K1 cell membranes (μ)
row,Structure (SMILES),Ki range for both μ and σ1 (dual-binding class)
1,"Oc1cccc(C2CCN(Cc3cn(-c4cccnc4)nn3)CC2)c1 [Example 10, 3-(1-((1-(pyridin-3-yl)-1H-1,2,3-triazol-4-yl)methyl)piperidin-4-yl)phenol]",< 500 nM
2,"Oc1cccc(C2CCN(Cc3cn(-c4ncccc4Cl)nn3)CC2)c1 [Example 161, 3-(1-((1-(3-chloropyridin-2-yl)-1H-1,2,3-triazol-4-yl)methyl)piperidin-4-yl)phenol]",< 500 nM
3,"Oc1cccc(C2CCN(Cc3cn(Cc4ccccc4)nn3)CC2)c1 [Example 8, 3-(1-((1-benzyl-1H-1,2,3-triazol-4-yl)methyl)piperidin-4-yl)phenol]",< 100 nM
4,"CC(C)S(=O)(=O)Nc1cccc(C2CCN(Cc3cn(-c4ccccc4)nn3)CC2)n1 [Example 207, N-(6-(1-((1-phenyl-1H-1,2,3-triazol-4-yl)methyl)piperidin-4-yl)pyridin-2-yl)propane-2-sulfonamide]",< 500 nM
5,"Oc1cccc(C2CCN(Cc3cc(-c4ccccc4)no3)CC2)c1 [Example 176, 3-(1-((3-phenylisoxazol-5-yl)methyl)piperidin-4-yl)phenol]",< 100 nM
6,"CS(=O)(=O)Nc1cccc(C2CCN(Cc3cn(C4CCc5ccccc54)nn3)CC2)c1 (stereo not drawn) [Example 48, N-(3-(1-((1-(2,3-dihydro-1H-inden-1-yl)-1H-1,2,3-triazol-4-yl)methyl)piperidin-4-yl)phenyl)methanesulfonamide]",< 500 nM
7,"Oc1cccc(C2CCN(Cc3cn(-c4ncccc4F)nn3)CC2)c1 [Example 154, 3-(1-((1-(3-fluoropyridin-2-yl)-1H-1,2,3-triazol-4-yl)methyl)piperidin-4-yl)phenol]",< 500 nM
8,"Oc1cccc(C2CCN(Cc3cn(Cc4ccccn4)nn3)CC2)c1 [Example 55, 3-(1-((1-(pyridin-2-ylmethyl)-1H-1,2,3-triazol-4-yl)methyl)piperidin-4-yl)phenol]",< 500 nM
9,"Oc1ccc(F)c(C2CCN(Cc3cn(Cc4ccccn4)nn3)CC2)c1 [Example 137, 4-fluoro-3-(1-((1-(pyridin-2-ylmethyl)-1H-1,2,3-triazol-4-yl)methyl)piperidin-4-yl)phenol]",< 500 nM
10,"Oc1cccc(C2CCN(Cc3cn(-c4ccncc4)nn3)CC2)c1 [Example 14, 3-(1-((1-(pyridin-4-yl)-1H-1,2,3-triazol-4-yl)methyl)piperidin-4-yl)phenol]",< 500 nM
11,"Oc1cc(C2CCN(Cc3cn(Cc4ccccn4)nn3)CC2)ccc1F [Example 136, 2-fluoro-5-(1-((1-(pyridin-2-ylmethyl)-1H-1,2,3-triazol-4-yl)methyl)piperidin-4-yl)phenol]",< 500 nM
12,"Oc1cccc(C2CCN(Cc3cn(Cc4ccccc4F)nn3)CC2)c1 [Example 4, 3-(1-((1-(2-fluorobenzyl)-1H-1,2,3-triazol-4-yl)methyl)piperidin-4-yl)phenol]",< 100 nM
13,"CCCn1cc(CN2CCC(c3cccc(O)c3)CC2)nn1 [Example 3, 3-(1-((1-propyl-1H-1,2,3-triazol-4-yl)methyl)piperidin-4-yl)phenol]",< 500 nM
14,"c1ccc(-n2cc(CN3CCC(c4cccc(-c5ncc[nH]5)c4)CC3)nn2)cc1 [Example 30, 4-(3-(1H-imidazol-2-yl)phenyl)-1-((1-phenyl-1H-1,2,3-triazol-4-yl)methyl)piperidine]",< 500 nM
15,"CC(C)NC(=O)c1cccc(C2CCN(Cc3cn(Cc4ccccc4)nn3)CC2)c1 [Example 51, 3-(1-((1-benzyl-1H-1,2,3-triazol-4-yl)methyl)piperidin-4-yl)-N-isopropylbenzamide]",≥ 500 nM
16,"CS(=O)(=O)Nc1cccc(C2CCN(Cc3cn(-c4cccc(F)c4)nn3)CC2)c1 [Example 28, N-(3-(1-((1-(3-fluorophenyl)-1H-1,2,3-triazol-4-yl)methyl)piperidin-4-yl)phenyl)methanesulfonamide]",< 100 nM
17,"Oc1cccc(C2CCN(Cc3cn(Cc4cccc(F)c4)nn3)CC2)c1 [Example 63, 3-(1-((1-(3-fluorobenzyl)-1H-1,2,3-triazol-4-yl)methyl)piperidin-4-yl)phenol]",< 100 nM
18,"CC(=O)Nc1cccc(C2CCN(Cc3cn(-c4ccccc4)nn3)CC2)c1 [Example 9, N-(3-(1-((1-phenyl-1H-1,2,3-triazol-4-yl)methyl)piperidin-4-yl)phenyl)acetamide]",< 500 nM
19,"CS(=O)(=O)Nc1cccc(C2CCN(Cc3cc(-c4ccccc4)no3)CC2)n1 [Example 200, N-(6-(1-((3-phenylisoxazol-5-yl)methyl)piperidin-4-yl)pyridin-2-yl)methanesulfonamide]",< 500 nM
20,"CS(=O)(=O)c1cccc(C2CCN(Cc3cn(-c4ccccc4)nn3)CC2)c1 [Example 47, 4-(3-(methylsulfonyl)phenyl)-1-((1-phenyl-1H-1,2,3-triazol-4-yl)methyl)piperidine]",< 500 nM
21,"Oc1cccc(C2CCN(Cc3cn(-c4c(F)cccc4F)nn3)CC2)c1 [Example 146, 3-(1-((1-(2,6-difluorophenyl)-1H-1,2,3-triazol-4-yl)methyl)piperidin-4-yl)phenol]",< 100 nM
22,"CCC(=O)Nc1cccc(C2CCN(Cc3cn(-c4ccccc4)nn3)CC2)n1 [Example 190, N-(6-(1-((1-phenyl-1H-1,2,3-triazol-4-yl)methyl)piperidin-4-yl)pyridin-2-yl)propionamide]",< 500 nM
23,"Nc1nc2c(C3CCN(Cc4cn(-c5ccccc5)nn4)CC3)cccc2s1 [Example 50, 4-(1-((1-phenyl-1H-1,2,3-triazol-4-yl)methyl)piperidin-4-yl)benzo[d]thiazol-2-amine]",< 100 nM
24,"Oc1cccc(C2CCN(Cc3cn(Cc4cccc(F)n4)nn3)CC2)c1 [Example 132, 3-(1-((1-((6-fluoropyridin-2-yl)methyl)-1H-1,2,3-triazol-4-yl)methyl)piperidin-4-yl)phenol]",< 500 nM
25,"Oc1cccc(C2CCN(Cc3cn([C@@H]4Cc5ccccc5[C@@H]4F)nn3)CC2)c1 [Example 71, 3-(1-((1-((1S,2R)-1-fluoro-2,3-dihydro-1H-inden-2-yl)-1H-1,2,3-triazol-4-yl)methyl)piperidin-4-yl)phenol]",< 100 nM
26,"Oc1cccc(C2CCN(Cc3cn(C4CCCCC4)nn3)CC2)c1 [Example 19, 3-(1-((1-cyclohexyl-1H-1,2,3-triazol-4-yl)methyl)piperidin-4-yl)phenol]",< 100 nM
